# Measurements: US10925921B2, “Fermented Pennisetum extract” (Sagittarius Life Science Corp., priority 2016, dated 2021)
# How the values were obtained:
# Assay type in all cases: in vivo, BALB/c nu/nu mice
# [1] = test system: human lung adenocarcinoma cell line, NCl-H441; assay: Tumor growth assay in orthotopic lung model, IVIS bioluminescence; details: docetaxel 2.5 mg/kg, from the fourth week
# Method: FIGS. 3(A) and (B) show the inhibitory effect of PPE on tumor growth of orthotropic lung tumor-bearing BALB/c nude mice. H441-luc were orthotopically injected into the lung of mice at a concentration of 0.8×10^6 cells/70 μL PBS. PPE treatments (three dosages 25, 50, and […].) twice a week by intraperitoneal injection into tumor-bearing animals over a period of 4 weeks. (A) Representative non-invasive bioluminescence images show tumor progression of mice in orthtopic model. (B) Bar graphs were quantified by Living Image analysis software (n=8-10). Data were analyzed by Student's t-test and are shown as mean±SD*P<0.05 compared with control. § P<0.05 compared with week 4 tumor group;
# Male BALB/c nu/nu mice were used in the orthotopic model and divided into five groups, control group (5 mice), tumor group (10 mice), three experimental groups (25-PPE, 50-PPE and 100-PPE) (each group for 10 mice) and docetaxel group (8 mice). […]
# The mice were injected with the cell solution of human lung adenocarcinoma cell line, NCl-H441, in matrigel (0.8×10^6 cells/70 μL/mice). […] The tumor growth was monitored by Non Invasion In Vivo Imaging System (IVIS).
# [2] = test system: human lung adenocarcinoma cell line, NCl-H441; assay: Survival (Kaplan-Meier) in orthotopic lung tumor-bearing mice; details: docetaxel 2.5 mg/kg b.w., orthotopic model
# Method: Male BALB/c nu/nu mice were used in the orthotopic model and divided into five groups, control group (5 mice), tumor group (10 mice), three experimental groups (25-PPE, 50-PPE and 100-PPE) (each group for 10 mice) and docetaxel group (8 mice). The mice of the control group and the tumor group were subjected to intraperitoneal injection (i.p.) with vehicle, while 10 mice of each of the experimental groups, 25-PPE group (25 mg/kg of PPE), 50-PPE group (50 mg/kg of PPE) and 100-PPE group (100 mg/kg of PPE), were i.p. administered with 25 mg/kg of PPE, 50 mg/kg of PPE and 100 mg/kg of PPE obtained in Example 1, respectively, and 8 mice of the docetaxel group were administered with 2.5 mg/kg of docetaxel.
# The mice were injected with the cell solution of human lung adenocarcinoma cell line, NCl-H441, in matrigel (0.8×10^6 cells/70 μL/mice). Three days after injections, the PPEs at the above-mentioned doses were i.p. administered to the mice twice every two weeks. The tumor growth was monitored by Non Invasion In Vivo Imaging System (IVIS).
# [3] = test system: human lung adenocarcinoma cell line, NCl-H441; assay: Computed tomography (CT) lung screening assay in orthotopic model; details: docetaxel 2.5 mg/kg, fourth week; tumor group 11.1+/−2.8%
# Text: FIGS. 5(A) and (B) show the inhibitory effects of PPE on analysis of tumor volume in orthotopic model. (A) The micro-CT images and quantitative end-points for lung tumor growth. Longitudinal and transverse micro-CT images of tumor growth in control and treatment of PPE. Each tumor scanned by micro-CT was reconstructed to three-dimensional images (axial, sagittal, and coronal), and diameters measured periodically as indicated. Data represent presence of tumor value in each group. (B) The tissue of lung lesions in nude mice. Representative lung tumor formed in different group. Tumors observed in the lungs are indicated with a yellow arrow;
# In the orthotopic model of Example 3, the mice were subjected to CT lung screening to detect the tumor size in lung at the fourth week. The tumor accounts for 11.1+/−2.8% of the lung in the tumor group, 10.1+/−3.9% in the 25-PPE group, 9.3+/−1.4% in the 50-PPE group, 7.5+/−2.3% in the 100-PPE group and 8.0+/−1.1% in the docetaxel group (see FIG. 5).
smiles,measurement,setting,value
CC(=O)O[C@@]12CO[C@@H]1C[C@H](O)[C@@]1(C)C(=O)[C@H](O)C3=C(C)[C@@H](OC(=O)[C@H](O)[C@@H](NC(=O)OC(C)(C)C)c4ccccc4)C[C@@](O)([C@@H](OC(=O)c4ccccc4)[C@H]21)C3(C)C [docetaxel],tumor bioluminescence (IVIS),[1],0.5+/−0.07×10^7 photons/sec
same,"lifespan, Kaplan-Meier cumulative survival analysis",[2],significant (p<0.05) increase in lifespan
same,tumor share of the lung (CT tumor volume ratio),[3],8.0+/−1.1%
